The assay concerns the target T1, Prostaglandin D2 receptor 2 (Homo sapiens, UniProt Q9Y5Y4).
T1 sequence (Q9Y5Y4 whole entry): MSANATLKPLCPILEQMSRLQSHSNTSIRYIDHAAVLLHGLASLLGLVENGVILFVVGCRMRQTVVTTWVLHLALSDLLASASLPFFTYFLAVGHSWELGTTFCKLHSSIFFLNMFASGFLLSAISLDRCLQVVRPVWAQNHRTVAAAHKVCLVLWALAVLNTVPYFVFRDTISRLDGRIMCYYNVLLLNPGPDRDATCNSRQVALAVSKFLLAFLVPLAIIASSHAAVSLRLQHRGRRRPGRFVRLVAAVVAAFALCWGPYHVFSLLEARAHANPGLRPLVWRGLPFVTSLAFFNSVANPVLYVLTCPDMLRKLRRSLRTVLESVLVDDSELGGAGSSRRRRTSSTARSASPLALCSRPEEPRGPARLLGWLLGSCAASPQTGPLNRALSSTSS
As to the kind of experiment: Radioligand Binding Assay: The CRTH2 receptor binding assay is performed in a scintillation proximity assay (SPA) format with the radioligand [3H]-PGD2 (Perkin Elmer, NET616000MC). CHO-K1-hCRTH2 cell membranes are again homogenized by passing through a single use needle (Terumo, 23Gx1'') and diluted in SPA incubation buffer in suitable concentrations (0.5-10 ug protein/well). The SPA assay is set up in 96 well microtiter plates (Perkin Elmer, CatNo. 6005040) in SPA incubation buffer with a final volume of 200 ul per well and final concentration of 50 mM Tris-HCl, 10 mM MgCl2, 150 mM NaCl, 1 mM EDTA pH 7.4, 0.1% bovine serum albumin). The SPA assay mixture contains 60 ul of the membrane suspension, 80 ul of Wheat Germ Agglutinin coated PVT beads (GE Healthcare, RPNQ-0001, 0.3 mg/well), 40 ul of [3H]-PGD2 diluted in SPA buffer to a final concentration of 1 nM (50 000 dpm) and 20 ul of the test compound (dissolved in dimethylsulfoxid). On the technique in general: SPA uses beads or plates that emit light when radiolabelled molecules are held near them.

This passage reports Ki results from ChEMBL document CHEMBL3639247, “Pyrazole compounds as CRTH2 antagonists” (2014).

By Ki is commonly meant a measure of affinity in units of concentration, obtained from inhibition or displacement.

Consider `CCc1nn(Cc2ccc(NC(=O)C3CCC(C(F)(F)F)CC3)cc2)c(CC)c1CC(=O)O` (stereo unspecified), for which the Ki was 0.0239 µM.
